From patent publication US12077503B2, “Substituted cyclic amides and their use as herbicides” (FMC CORPORATION, priority 2015, dated 2024)

Columns and labels:
Type in all cases: in vivo
[1] = system: ryegrass, Italian (Italian ryegrass, Lolium multiflorum); assay: Test A preemergence
Excerpt: (§1) Seeds of plant species selected from barnyardgrass (Echinochloa crus-galli), Kochia (Kochia scoparia), ragweed (common ragweed, Ambrosia elatior), ryegrass, Italian (Italian ryegrass, Lolium multiflorum), crabgrass, large (Digitaria sanguinalis), giant foxtail (Setaria faberii), green foxtail (Setaria viridis), morningglory (Ipomoea spp.), pigweed (Amaranthus retroflexus), velvetleaf (Abutilon theophrasti), wheat (Triticum aestivum), and corn (Zea mays) were planted into a blend of loam soil and sand and treated preemergence with a directed soil spray using test chemicals formulated in anon-phytotoxic solvent mixture which included a surfactant.
(§2) At the same time, plants selected from these crop and weed species and also blackgrass (Alopecurus myosuroides), and Galium (catchweed bedstraw, Galium aparine) were planted in pots containing the same blend of loam soil and sand and treated with postemergence applications of test chemicals formulated in the same manner. Plants ranged in height from 2 to 10 cm and were in the one- to two-leaf stage for the postemergence treatment. Treated plants and untreated controls were maintained in a greenhouse for approximately 10 d, after which time all treated plants were compared to untreated controls and visually evaluated for injury. Plant response ratings, summarized in Table A, are based on a 0 to 100 scale where 0 is no effect and 100 is complete control. A dash (-) response means no test result.

[2] = system: pigweed (Amaranthus retroflexus); assay: Test A preemergence
Excerpt: as §1, §2

[3] = system: ragweed (common ragweed, Ambrosia elatior); assay: Test A preemergence
Excerpt: as §1, §2

Kochia (Kochia scoparia) [4] = assay: Test A preemergence
Excerpt: as §1, §2

[5] = system: giant foxtail (Setaria faberii); assay: Test A preemergence
Excerpt: as §1, §2

[6] = system: barnyardgrass (Echinochloa crus-galli); assay: Test A preemergence
Excerpt: as §1, §2

[7] = system: sedge, umbrella (small-flower umbrella sedge, Cyperus difformis); assay: Test B flooded paddy test; conditions: Flood, 250 g ai/ha; 0 to 100 scale where 0 is no effect and 100 is complete control; 13 to 15 d
Experimental: (§3) Plant species in the flooded paddy test selected from rice (Oryra sativa), sedge, umbrella (small-flower umbrella sedge, Cyperus difformis), ducksalad (Heteranthera limosa), and barnyardgrass (Echinochloa crus-galli) were grown to the 2-leaf stage for testing. At time of treatment, test pots were flooded to 3 cm above the soil surface, treated by application of test compounds directly to the paddy water, and then maintained at that water depth for the duration of the test. Treated plants and controls were maintained in a greenhouse for 13 to 15 d, after which time all species were compared to controls and visually evaluated. Plant response ratings, summarized in Table B, are based on a scale of 0 to 100 where 0 is no effect and 100 is complete control. A dash (-) response means no test result.

[8] = system: ducksalad (Heteranthera limosa); assay: Test B flooded paddy test; conditions: Flood, 250 g ai/ha; 0 to 100 scale where 0 is no effect and 100 is complete control; 13 to 15 d
Experimental: as §3

[9] = system: barnyardgrass (Echinochloa crus-galli); assay: Test B flooded paddy test; conditions: Flood, 250 g ai/ha; 0 to 100 scale where 0 is no effect and 100 is complete control; 13 to 15 d
Experimental: as §3

rice (Oryra sativa) = assay: Test B flooded paddy test; conditions: Flood, 250 g ai/ha; 0 to 100 scale where 0 is no effect and 100 is complete control; 13 to 15 d
Experimental: as §3

[10] = system: wheat (Triticum aestivum); assay: Test A postemergence
Excerpt: as §1, §2

[11] = system: ryegrass, Italian (Italian ryegrass, Lolium multiflorum); assay: Test A postemergence
Excerpt: as §1, §2

[12] = system: pigweed (Amaranthus retroflexus); assay: Test A postemergence
Excerpt: as §1, §2

corn (Zea mays) = assay: Test A postemergence
Excerpt: as §1, §2

[13] = system: ragweed (common ragweed, Ambrosia elatior); assay: Test A postemergence
Excerpt: as §1, §2

Kochia (Kochia scoparia) [14] = assay: Test A postemergence
Excerpt: as §1, §2

[15] = system: blackgrass (Alopecurus myosuroides); assay: Test A postemergence
Excerpt: as §1, §2

[16] = system: giant foxtail (Setaria faberii); assay: Test A postemergence
Excerpt: as §1, §2

[17] = system: Galium (catchweed bedstraw, Galium aparine); assay: Test A postemergence
Excerpt: as §1, §2

[18] = system: barnyardgrass (Echinochloa crus-galli); assay: Test A postemergence
Excerpt: as §1, §2

[19] = 125 g ai/ha, Preemergence, visual injury after approximately 10 d, 0 to 100 scale where 0 is no effect and 100 is complete control
[20] = Preemergence, 500 g ai/ha, visual injury approx. 10 d
[21] = 125 g ai/ha, postemergence, visual injury rating on 0 to 100 scale (0 no effect, 100 complete control), approx. 10 d
[22] = Postemergence, 500 g ai/ha, 0 to 100 scale where 0 is no effect and 100 is complete control
[23] = 500 g ai/ha, preemergence, 0 to 100 scale, 0 = no effect, 100 = complete control
[24] = 125 g ai/ha, postemergence, visual rating after approx. 10 d, 0 to 100 scale (0 no effect, 100 complete control)
[25] = 500 g ai/ha, postemergence, visual injury, 0 to 100 scale (0 no effect, 100 complete control), approx. 10 d

C=C(Cl)CN1CC(c2cccc(C(F)(F)F)c2)C(C(=O)Nc2ccccc2F)C1=O (stereo not drawn) [Compound 482]
10: Barnyardgrass plant response rating (0 to 100 scale, 0 is no effect, 100 is complete control) [6, 20]
80: Foxtail, Giant plant response rating (0 to 100 scale, 0 is no effect, 100 is complete control) [5, 20]
20: Plant response rating, Foxtail, Giant [16, 22] | Plant response rating, Barnyardgrass [18, 22]
0: Plant response rating, Ryegrass, Italian [1, 19] | Ryegrass, Italian plant response rating (0 to 100 scale, 0 is no effect, 100 is complete control) [1, 20] | Plant response rating, Pigweed [2, 19] | Pigweed plant response rating (0 to 100 scale, 0 is no effect, 100 is complete control) [2, 20] | Plant response rating, Ragweed [3, 19] | Ragweed plant response rating (0 to 100 scale, 0 is no effect, 100 is complete control) [3, 20] | Plant response rating, Kochia (Kochia (Kochia scoparia) [4]; [19]) | Kochia plant response rating (0 to 100 scale, 0 is no effect, 100 is complete control) (Kochia (Kochia scoparia) [4]; [20]) | Plant response rating, Barnyardgrass [6, 19] | Plant response rating, Sedge, Umbrella [7] | Plant response rating, Ducksalad [8] | Plant response rating, Barnyardgrass [9] | Plant response rating, Rice (rice (Oryra sativa)) | Wheat plant response rating [10, 21] | Plant response rating, Wheat [10, 22] | Ryegrass, Italian plant response rating [11, 21] | Plant response rating, Ryegrass, Italian [11, 22] | Pigweed plant response rating [12, 21] | Plant response rating, Pigweed [12, 22] | Corn plant response rating (corn (Zea mays); [21]) | Plant response rating, Corn (corn (Zea mays); [22]) | Ragweed plant response rating [13, 21] | Plant response rating, Ragweed [13, 22] | Kochia plant response rating (Kochia (Kochia scoparia) [14]; [21]) | Plant response rating, Kochia (Kochia (Kochia scoparia) [14]; [22]) | Blackgrass plant response rating [15, 21] | Plant response rating, Blackgrass [15, 22] | Foxtail, Giant plant response rating [16, 21] | Galium plant response rating [17, 21] | Plant response rating, Galium [17, 22] | Barnyardgrass plant response rating [18, 21]
70: Plant response rating, Foxtail, Giant [5, 19]

Cc1cc(C2CNC(=O)C2C(=O)Nc2cccc(F)c2F)cs1 (racemic) [Compound 656]
0: Plant response rating, Sedge, Umbrella [7] | Plant response rating, Rice (rice (Oryra sativa)) | Plant response rating, Wheat [10, 24] | Plant response rating, Ryegrass, Italian [11, 24] | Plant response rating, Ryegrass, Italian [11, 25] | Plant response rating, Pigweed [12, 24] | Plant response rating, Pigweed [12, 25] | Plant response rating, Corn (corn (Zea mays); [24]) | Plant response rating, Ragweed [13, 24] | Plant response rating, Ragweed [13, 25] | Plant response rating, Blackgrass [15, 24] | Plant response rating, Galium [17, 24]
20: Plant response rating, Ragweed [3, 19] | Plant response rating, Wheat [10, 25] | Plant response rating, Corn (corn (Zea mays); [25]) | Plant response rating, Kochia (Kochia (Kochia scoparia) [14]; [24]) | Plant response rating, Foxtail, Giant [16, 24]
60: Plant response rating, Ryegrass, Italian [1, 23] | Plant response rating, Ragweed [3, 23] | Plant response rating, Kochia (Kochia (Kochia scoparia) [4]; [19]) | Plant response rating, Foxtail, Giant [16, 25] | Plant response rating, Galium [17, 25]
30: Plant response rating, Ryegrass, Italian [1, 19] | Plant response rating, Pigweed [2, 19] | Plant response rating, Kochia (Kochia (Kochia scoparia) [14]; [25]) | Plant response rating, Blackgrass [15, 25]
90: Plant response rating, Foxtail, Giant [5, 19] | Plant response rating, Foxtail, Giant [5, 23] | Plant response rating, Barnyardgrass [6, 19] | Plant response rating, Barnyardgrass [6, 23] | Plant response rating, Barnyardgrass [18, 24] | Plant response rating, Barnyardgrass [18, 25]
40: Plant response rating, Pigweed [2, 23]
50: Plant response rating, Kochia (Kochia (Kochia scoparia) [4]; [23]) | Plant response rating, Barnyardgrass [9]
100: Plant response rating, Ducksalad [8]
